“Also recorded” adds a separate entry of the source.
Columns and labels:
[1] = test system: DBA/2J (D2) mice; test: Glaucomatous neurodegeneration in D2 mice at 12 months (optic nerve damage grading, soma loss, visual function, axonal transport); type: in vivo, mouse; settings: for protection from developing glaucoma / optic nerve degeneration: NAM 550 mg/kg/d in drinking water, assessed at 12 months
Protocol: From left, DBA/2J control—D2 mice on standard drinking water; Nicotinamide)(NAM^Lo) early start—D2 mice on standard drinking water supplemented with 550 mg/kg/day NAM from 6 months of age (pre-disease); Nicotinamide)(NAM^Lo) late start—D2 mice on standard drinking water supplemented with 550 mg/kg/day NAM from 9 months of age (during disease); Nicotinamide (NAM^Hi) early start—D2 mice on standard drinking water supplemented with 2,000 mg/kg/day NAM from 6 months of age (pre-disease); Pyruvate—D2 mice on standard drinking water supplemented with 500 mg/kg/day pyruvate from 6 months of age (pre-elevated IOP); NAM^Lo+Pyruvate—D2 mice on standard drinking water supplemented with 550 mg/kg/day NAM+500 mg/kg/day pyruvate from 6 months of age (pre-disease); D2.Wld^S—D2 mice carrying the Wld^S transgene (altered NMNAT enzyme that enhances enzymatic activity) on standard drinking water; D2.Wld^S+Nicotinamide)(NAM^Lo)—D2 mice carrying the Wld^S transgene (altered NMNAT enzyme) on standard drinking water with 550 mg/kg/day NAM from 6 months of age (pre-elevated IOP).
To determine the fate of the retinal ganglion cells following prolonged period of elevated IOP in the D2 mice, we used PPD staining of the optic nerve to reveal the extent of retinal and/or optic nerve neurodegeneration, as PPD darkly stains the axoplasm of dead/dying axons.
For this purpose, we distinguished optic nerves as having one of three levels of damage: no glaucoma, where there is <5% axon loss in the optic nerve, these nerves are indistinguishable from young controls; moderate glaucoma, with […], and evidence of darkly stained axons; or severe glaucoma, with >50% axon loss, and typically accompanied by gliosis/gliotic scarring.
We conducted this in vivo experiment using a large cohort of D2 mice. In this experiment, optic nerves were classified into three damage levels: NO (no glaucoma), MOD (moderate damage), and SEV (severe damage).
Experimental D2 mice were divided into the following groups and were given:
W=water (standard mouse water)
NAM or NAM^Lo=550 mg/kg/d NAM in drinking water
Early=early start=pre-glaucoma=6-month of age (i.e. prophylactic)
Late=late start=during glaucoma=9-month of age (when mice already have high IOP, i.e. interventional, and more relative to human glaucoma)
Mice were then assessed at 12-month for optic nerve damage, soma loss, visual function, and axonal transport (data not shown).

[2] = test system: lipid droplets in DBA/2J retinas; test: Lipid droplet formation in the inner retina by Oil Red O staining; type: in vivo, mouse; settings: 12 month of age DBA/2J mice, versus untreated
Protocol: Lipid droplet formation in the inner retina was assessed by Oil Red O staining, which brightly stained neutral triglycerides and lipids. Following intraocular pressure elevation, lipid droplets were present within the inner retina of DBA/2J mice. At 6 months of age, the majority of retinas were negative for lipid droplets. By 9 months of age, small and dispersed lipid droplets were present in some eyes. By 12 months of age, lipid accumulation was present in the majority of eyes in retinas that had not yet developed glaucoma (no glaucoma). In eyes that had developed severe glaucoma, lipid droplets were present across the retina in the majority of eyes. GCL=ganglion cell layer (retinal ganglion cell bodies), IPL=inner plexiform layer (retinal ganglion cell dendrites and synapses). Haematoxylin (dark blue/purple) is a general marker of cell nuclei used as a counter-stain.
Lipid droplet formation was assessed in retinas from nicotinamide-treated DBA/2J mice. […] GCL=ganglion cell layer (retinal ganglion cell bodies), IPL=inner plexiform layer (retinal ganglion cell dendrites and synapses). Haematoxylin (dark blue/purple) is a general marker of cell nuclei used as a counter-stain.
Again, lipid/fat droplet formation in the inner retina was assessed by Oil Red O staining. […]
Lipid droplet formation was assessed in retinas from nicotinamide-treated DBA/2J mice.

[3] = test system: DBA/2J (D2) mice; test: Intraocular pressure (IOP) in D2 mice; type: in vivo, mouse; settings: NAM in drinking water (data not shown)
Text: Following the onset of iris disease around 6 months of age, intraocular pressure began to increase (FIG. 2). A typical “normal” IOP in a D2 mouse eye is ˜13 mmHg, which increases progressively from 6 to 12 months, to values that can typically exceed 20 mmHg. By 9 months of age, IOP was/had been elevated in the majority of the eyes of the D2 mice. IOP increases in D2 eyes were age-related and asynchronous, as well as being highly variable. In our colony, females tend to have higher/early onsets of elevated IOP (FIG. 2). […] Importantly, NAM was protective both prophylactically (starting at 6-month, early start; prior to IOP elevation in the vast majority of eyes in the colony), and as an intervention (starting at 9-month, late start; when the majority of eyes have had continuing IOP elevation). This signifies that NAM is able to both prevent neuronal injury from occurring as well as limiting neuronal injury to already insulted neurons (FIG. 6). This is important for human disease where treatment would only start once a disease has become symptomatic and thus detectable.

[4] = test system: NAD levels; test: NAD levels in NAM-treated D2 mice; type: in vivo, mouse; settings: NAM 550 mg/kg/d in drinking water
[5] = test system: retinal ganglion cells; test: Retinal ganglion cell analyses in NAM-treated D2 mice (data not shown); type: in vivo, mouse
Text: In addition, many ocular and neurodegenerative diseases occur in the elderly due to age-dependent molecular chances that increase susceptibility to damage. […] Furthermore, axonal degeneration and somal shrinkage may represent common components in some neurodegenerative diseases. NAM prevents these changes based on the data above at least in glaucoma treatment.

[6] = test system: DBA/2J (D2) mice; settings: cited from earlier work
[7] = test system: DBA/2J (D2) mice; settings: cited from earlier work; remark: listed apart in the source
[8] = test system: mice; test: PQQ tolerability in mice; type: in vivo, mouse
Protocol: With regard to PQQ, it is tolerated at least at 2,000 mg/kg/day in mice. The neuroprotective effect provided by PQQ is about 20-2,000 mg/kg/day, about 100-1,000 mg/kg/day, or about 500 mg/kg/day in mice.

**Q.** What does the source list for `NC(=O)c1cccnc1` [NAM, nicotinamide]?
**A.** protection from developing glaucoma / optic nerve degeneration [1]: protect the D2 mice from all detectable signs of glaucoma through 12 months; also recorded: robustly protected D2 mice from developing glaucoma; protection from developing glaucoma / optic nerve degeneration ([1]; listed as nicotinamide): protects against optic nerve degeneration; glaucoma in the majority of the treated eyes, including PERG ([1]; NAM administration): completely prevents glaucoma; protection from glaucoma, prophylactic ([1]; NAM early start at 6-month, prior to IOP elevation): protects against glaucomatous neurodegeneration prophylactically; also recorded: protective; protection from glaucoma, as an intervention ([1]; NAM late start at 9-month, continuing IOP elevation): protective; lipid droplet accumulation in retinas [2]: completely prevented; effect on IOP [3]: did not alter IOP; decline of NAD levels [4]: prevent the decline of NAD levels; early synapse loss ([5]; data not shown): protects early synapse loss; formation of dysfunctional mitochondria with abnormal cristae ([5]; data not shown): inhibits the formation of dysfunctional mitochondria with abnormal cristae; retinal ganglion cell dysfunction and degeneration ([5]; data not shown): robustly prevent retinal ganglion cell dysfunction and degeneration; age-related gene expression / molecular changes in RGCs ([5]; gene expression, data not shown): prevents age-related gene expression In RGCs; also recorded: prevents age-related molecular changes; axonal degeneration and somal shrinkage ([5]; glaucoma): prevents axonal degeneration and somal shrinkage; PARP activation ([5]; immunostaining, data not shown): decreases PARP activation; molecular signs of glaucoma ([5]; immunostaining, data not shown): prevents molecular signs of glaucoma

**Q.** For `CC(C)(C)NC[C@H](O)COc1nsnc1N1CCOCC1` [timolol], which “risk of developing neurodegeneration after topical administration” value [6] is on record?
**A.** The value was “reduces the risk of developing neurodegeneration”.

**Q.** And the “IOP after topical administration” value [7]?
**A.** Its value is “lowers IOP”.

**Q.** Which tolerated dose [8] does the source give for `O=C(O)c1cc(C(=O)O)c2c(n1)C(=O)C(=O)c1cc(C(=O)O)[nH]c1-2` [PQQ, Pyrroloquinoline Quinone] here?
**A.** Its tolerated dose is ≥ 2,000 mg/kg/day.

**Q.** Which results are given for `CC(C)OC(=O)CCC/C=C\C[C@@H]1[C@@H](CC[C@@H](O)CCc2ccccc2)[C@H](O)C[C@@H]1O` [Latanoprost]?
**A.** risk of developing neurodegeneration after topical administration [6]: reduces the risk of developing neurodegeneration; IOP after topical administration [7]: lowers IOP

**Q.** With `CC12CC3CC(C)(C1)CC(N)(C3)C2` [memantine] as the compound, how does the “risk of developing neurodegeneration after topical administration” value [6] read?
**A.** The value was “reduces the risk of developing neurodegeneration”.

**Q.** And the “IOP after topical administration” value [7]?
**A.** The value was “lowers IOP”.

— patent publication US11369695B2, “Fat droplets in retina and optic nerve as a diagnostic marker for neurodegeneration and glaucoma in humans” (The Jackson Laboratory, priority 2016, dated 2022)
